Measured values published in patent US20260098061A1, “EPHA2-BINDING PENDING PEPTIDE AND COMPOSITION COMPRISING SAME” (PeptiDream Inc., priority 2022, published 2026).
Numbered stars: 1 amine (or outer) side, 2 acyl side, 3 side chain; on linkers, the order of the positions; unused ones are H or OH. Bridge positions count the residues as written; N and C are the ends. Square brackets hold non-standard residues; d marks the D form. Side chains are listed from the residue outwards. Peptide text beside a SMILES is read from it. * marks the point of attachment. NH(1-deoxy-D-glucityl) = OC[C@@H](O)[C@@H](O)[C@H](O)[C@@H](O)CN*; Piperazinyl(4-CH2COOH) = O=C(O)CN1CCN(*)CC1; Trp(1-Me) = Cn1cc(C[C@H](N)C(=O)O)c2ccccc21; X5 = Cc1cccc(C[C@H](N[*:1])C(=O)[*:2])c1C; NMe3Pal = CN[C@@H](Cc1cccnc1)C(=O)O; NMeF = CN[C@@H](Cc1ccccc1)C(=O)O; Gly(cBu) = N[C@H](C(=O)O)C1CCC1; NMeE = CN[C@@H](CCC(=O)O)C(=O)O; Aad = N[C@@H](CCCC(=O)O)C(=O)O; NMeN = CN[C@@H](CC(N)=O)C(=O)O; Chg = N[C@H](C(=O)O)C1CCCCC1; CO = O=C([*:1])[*:2]

What follows are compounds tested against T1, Recombinant Human EphA2 Fc Protein (Homo sapiens, UniProt P29317) (assay: SPR interaction analysis (Biacore T200), kinetics of peptides against EphA2). Conditions: Recombinant Human EphA2 Fc Protein captured by Human Antibody Capture kit; single-cycle kinetics; 25° C.; HBS-P+ buffer with 1% DMSO.
T1 construct: purchased Elabscience
Format: binding
Protocol: Example 14 Interaction Analysis by SPR was Performed Using Biacore (Cytiva)
SPR assay was performed using Biacore T200 (Cytiva).
The HBS-P+ buffer (10 mM HEPES (pH7.4), 150 mM NaCl, 0.05% (v/V) Surfactant P20) containing 1% DMSO was used as running buffer. Recombinant Human EphA2 Fc Protein (Fc tag, Elabscience) was captured by Human Antibody Capture kit (Cytiva). Peptide samples in DMSO were diluted with running buffer, and prepared five serial dilutions. Using these serial dilutions, kinetics of peptides against EphA2 was measured at a flow rate of 30 mL/min at 25° C. The method adopted for sample measurement was a single-cycle kinetics method. The analysis was conducted using the evaluation software 3.0 provided with Biacore T200. Kinetics fitting was done on the difference data obtained by subtracting the baseline data from sample measurement data. KD values were calculated based on the association rate constant (ka) and dissociation rate constant (kd).

Compound	Kd [nM]
Cc1cccc(C[C@@H]2NC(=O)[C@H](CCCCNC(=O)N3CCN(CC(=O)O)CC3)NC(=O)[C@H](Cc3cn(C)c4ccccc34)NC(=O)[C@H](Cc3ccccc3)N(C)C(=O)[C@H](CCCC(N)=O)NC(=O)[C@H](C3CCC3)NC(=O)[C@H](CC(N)=O)NC(=O)[C@H](Cc3cccnc3)N(C)C(=O)[C@@H](C)NC(=O)CSC[C@@H](C(N)=O)NC(=O)[C@H](CCCC(N)=O)NC(=O)[C@H]([C@@H](C)O)NC2=O)c1C [PDC_EphA2-00010003, da-Me3Py-N-Cbg-Hgn-MeF-W1Me-KCOpipzaa-F23dMe-T-Hgn-C-NH2] ({CH2CO}-[dA][NMe3Pal]N[Gly(cBu)][Aad](NH2)[NMeF][Trp(1-Me)]K([CO-Piperazinyl(4-CH2COOH)])[X5]T[Aad](NH2)C-NH2; thioether N-12)	< 1
C[C@H]1NC(=O)CSC[C@@H](C(N)=O)NC(=O)[C@H](CC(N)=O)NC(=O)[C@H]([C@@H](C)O)NC(=O)[C@H](Cc2cn(C)c3ccccc23)NC(=O)[C@H](CCCCNC(=O)N2CCN(CC(=O)O)CC2)NC(=O)[C@H](Cc2cn(C)c3ccccc23)NC(=O)[C@H](Cc2ccccc2)N(C)C(=O)[C@H](CCCC(N)=O)NC(=O)[C@H](C2CCC2)NC(=O)[C@H](CC(N)=O)NC(=O)[C@H](Cc2cccnc2)N(C)C1=O [PDC_EphA2-00010004, da-Me3Py-N-Cbg-Hgn-MeF-W1Me-KCOpipzaa-W1Me-T-N-C-NH2] ({CH2CO}-[dA][NMe3Pal]N[Gly(cBu)][Aad](NH2)[NMeF][Trp(1-Me)]K([CO-Piperazinyl(4-CH2COOH)])[Trp(1-Me)]TNC-NH2; thioether N-12)	< 1
C[C@H]1NC(=O)CSC[C@@H](C(N)=O)NC(=O)[C@H](CCCC(N)=O)NC(=O)[C@H]([C@@H](C)O)NC(=O)[C@H](Cc2cn(C)c3ccccc23)NC(=O)[C@H](CCCCNC(=O)N2CCN(CC(=O)O)CC2)NC(=O)[C@H](Cc2cn(C)c3ccccc23)NC(=O)[C@H](Cc2ccccc2)N(C)C(=O)[C@H](CCCC(N)=O)NC(=O)[C@H](C2CCCCC2)NC(=O)[C@H](CC(N)=O)NC(=O)[C@H](Cc2cccnc2)N(C)C1=O [PDC_EphA2-00010005, da-Me3Py-N-Chg-Hgn-MeF-W1Me-KCOpipzaa-W1Me-T-Hgn-C-NH2] ({CH2CO}-[dA][NMe3Pal]N[Chg][Aad](NH2)[NMeF][Trp(1-Me)]K([CO-Piperazinyl(4-CH2COOH)])[Trp(1-Me)]T[Aad](NH2)C-NH2; thioether N-12)	< 1
CC(C)C[C@@H]1NC(=O)[C@H](CC(N)=O)NC(=O)[C@H](Cc2cccnc2)N(C)C(=O)[C@@H](C)NC(=O)CSC[C@@H](C(N)=O)NC(=O)[C@H](CCCC(N)=O)NC(=O)[C@H]([C@@H](C)O)NC(=O)[C@H](Cc2cn(C)c3ccccc23)NC(=O)[C@H](CCCCNC(=O)N2CCN(CC(=O)O)CC2)NC(=O)[C@H](Cc2cn(C)c3ccccc23)NC(=O)[C@H](CCC(=O)O)N(C)C(=O)[C@H](CCCC(=O)O)NC1=O [PDC_EphA2-00010006, da-Me3Py-N-L-Hgl-MeE-W1Me-KCOpipzaa-W1Me-T-Hgn-C-NH2] ({CH2CO}-[dA][NMe3Pal]NL[Aad][NMeE][Trp(1-Me)]K([CO-Piperazinyl(4-CH2COOH)])[Trp(1-Me)]T[Aad](NH2)C-NH2; thioether N-12)	< 1
C[C@H]1NC(=O)CSC[C@@H](C(N)=O)NC(=O)[C@H](CCCC(N)=O)NC(=O)[C@H]([C@@H](C)O)NC(=O)[C@H](Cc2cn(C)c3ccccc23)NC(=O)[C@H](CCCCNC(=O)N2CCN(CC(=O)O)CC2)NC(=O)[C@H](Cc2cn(C)c3ccccc23)NC(=O)[C@H](CCC(=O)O)N(C)C(=O)[C@H](CCCC(=O)O)NC(=O)[C@H](C2CCC2)NC(=O)[C@H](CC(N)=O)NC(=O)[C@H](Cc2cccnc2)N(C)C1=O [PDC_EphA2-00010007, da-Me3Py-N-Cbg-Hgl-MeE-W1Me-KCOpipzaa-W1Me-T-Hgn-C-NH2] ({CH2CO}-[dA][NMe3Pal]N[Gly(cBu)][Aad][NMeE][Trp(1-Me)]K([CO-Piperazinyl(4-CH2COOH)])[Trp(1-Me)]T[Aad](NH2)C-NH2; thioether N-12)	< 1
CC(C)C[C@@H]1NC(=O)[C@H](CC(N)=O)NC(=O)[C@H](Cc2cccnc2)N(C)C(=O)[C@@H](C)NC(=O)CSC[C@@H](C(N)=O)NC(=O)[C@H](CCCC(N)=O)NC(=O)[C@H]([C@@H](C)O)NC(=O)[C@H](Cc2cn(C)c3ccccc23)NC(=O)[C@H](CCCCNC(=O)N2CCN(CC(=O)O)CC2)NC(=O)[C@H](Cc2cn(C)c3ccccc23)NC(=O)[C@H](CCC(=O)O)N(C)C(=O)[C@H](CCCC(N)=O)NC1=O [PDC_EphA2-00010008, da-Me3Py-N-L-Hgn-MeE-W1Me-KCOpipzaa-W1Me-T-Hgn-C-NH2] ({CH2CO}-[dA][NMe3Pal]NL[Aad](NH2)[NMeE][Trp(1-Me)]K([CO-Piperazinyl(4-CH2COOH)])[Trp(1-Me)]T[Aad](NH2)C-NH2; thioether N-12)	< 1
C[C@H]1NC(=O)CSC[C@@H](C(N)=O)NC(=O)[C@H](CCCC(N)=O)NC(=O)[C@H]([C@@H](C)O)NC(=O)[C@H](Cc2cn(C)c3ccccc23)NC(=O)[C@H](CCCCNC(=O)N2CCN(CC(=O)O)CC2)NC(=O)[C@H](Cc2cn(C)c3ccccc23)NC(=O)[C@H](CCC(=O)O)N(C)C(=O)[C@H](CCCC(N)=O)NC(=O)[C@H](C2CCC2)NC(=O)[C@H](CC(N)=O)NC(=O)[C@H](Cc2cccnc2)N(C)C1=O [PDC_EphA2-00010009, da-Me3Py-N-Cbg-Hgn-MeE-W1Me-KCOpipzaa-W1Me-T-Hgn-C-NH2] ({CH2CO}-[dA][NMe3Pal]N[Gly(cBu)][Aad](NH2)[NMeE][Trp(1-Me)]K([CO-Piperazinyl(4-CH2COOH)])[Trp(1-Me)]T[Aad](NH2)C-NH2; thioether N-12)	< 1
CC(C)[C@@H]1NC(=O)[C@H](Cc2cn(C)c3ccccc23)NC(=O)[C@H](CC(N)=O)NC(=O)[C@H](CCCC(N)=O)NC(=O)[C@H](C2CCC2)NC(=O)[C@H](CC(N)=O)NC(=O)[C@H](Cc2cccnc2)N(C)C(=O)[C@@H](C)NC(=O)CSC[C@@H](C(N)=O)NC(=O)[C@H](CCCC(N)=O)NC(=O)[C@H]([C@@H](C)O)NC(=O)[C@H](Cc2cn(C)c3ccccc23)NC1=O [PDC_EphA2-00010010, da-Me3Py-N-Cbg-Hgn-N-W1Me-V-W1Me-T-Hgn-C-NH2] ({CH2CO}-[dA][NMe3Pal]N[Gly(cBu)][Aad](NH2)N[Trp(1-Me)]V[Trp(1-Me)]T[Aad](NH2)C-NH2; thioether N-12)	< 1
CC(C)[C@@H]1NC(=O)[C@H](Cc2cn(C)c3ccccc23)NC(=O)[C@H](CC(N)=O)N(C)C(=O)[C@H](CCCC(N)=O)NC(=O)[C@H](C2CCC2)NC(=O)[C@H](CC(N)=O)NC(=O)[C@H](Cc2cccnc2)N(C)C(=O)[C@@H](C)NC(=O)CSC[C@@H](C(N)=O)NC(=O)[C@H](CCCC(N)=O)NC(=O)[C@H]([C@@H](C)O)NC(=O)[C@H](Cc2cn(C)c3ccccc23)NC1=O [PDC_EphA2-00010011, da-Me3Py-N-Cbg-Hgn-MeN-W1Me-V-W1Me-T-Hgn-C-NH2] ({CH2CO}-[dA][NMe3Pal]N[Gly(cBu)][Aad](NH2)[NMeN][Trp(1-Me)]V[Trp(1-Me)]T[Aad](NH2)C-NH2; thioether N-12)	< 1
CC(C)[C@@H]1NC(=O)[C@H](Cc2cn(C)c3ccccc23)NC(=O)[C@H](Cc2cccnc2)N(C)C(=O)[C@H](CCCC(N)=O)NC(=O)[C@H](C2CCC2)NC(=O)[C@H](CC(N)=O)NC(=O)[C@H](Cc2cccnc2)N(C)C(=O)[C@@H](C)NC(=O)CSC[C@@H](C(N)=O)NC(=O)[C@H](CCCC(N)=O)NC(=O)[C@H]([C@@H](C)O)NC(=O)[C@H](Cc2cn(C)c3ccccc23)NC1=O [PDC_EphA2-00010012, da-Me3Py-N-Cbg-Hgn-Me3Py-W1Me-V-W1Me-T-Hgn-C-NH2] ({CH2CO}-[dA][NMe3Pal]N[Gly(cBu)][Aad](NH2)[NMe3Pal][Trp(1-Me)]V[Trp(1-Me)]T[Aad](NH2)C-NH2; thioether N-12)	< 1
CC(C)[C@@H]1NC(=O)[C@H](Cc2cn(C)c3ccccc23)NC(=O)[C@H](CC(N)=O)N(C)C(=O)[C@H](CCCC(N)=O)NC(=O)[C@H](C2CCC2)NC(=O)[C@H](CC(N)=O)NC(=O)[C@H](Cc2ccccc2)N(C)C(=O)[C@@H](C)NC(=O)CSC[C@@H](C(N)=O)NC(=O)[C@H](CCCC(N)=O)NC(=O)[C@H]([C@@H](C)O)NC(=O)[C@H](Cc2cn(C)c3ccccc23)NC1=O [PDC_EphA2-00013693, da-MeF-N-Cbg-Hgn-MeN-W1Me-V-W1Me-T-Hgn-C-NH2] ({CH2CO}-[dA][NMeF]N[Gly(cBu)][Aad](NH2)[NMeN][Trp(1-Me)]V[Trp(1-Me)]T[Aad](NH2)C-NH2; thioether N-12)	< 1
C[C@H]1NC(=O)CSC[C@@H](C(N)=O)NC(=O)[C@H](CCCC(N)=O)NC(=O)[C@H]([C@@H](C)O)NC(=O)[C@H](Cc2cn(C)c3ccccc23)NC(=O)[C@H](CCC(=O)NC[C@H](O)[C@@H](O)[C@H](O)[C@H](O)CO)NC(=O)[C@H](Cc2cn(C)c3ccccc23)NC(=O)[C@H](CC(N)=O)N(C)C(=O)[C@H](CCCC(N)=O)NC(=O)[C@H](C2CCC2)NC(=O)[C@H](CC(N)=O)NC(=O)[C@H](Cc2ccccc2)N(C)C1=O [PDC_EphA2-00013703, da-MeF-N-Cbg-Hgn-MEN-W1Me-Qglucamine-W1Me-T-Hgn-C-NH2] ({CH2CO}-[dA][NMeF]N[Gly(cBu)][Aad](NH2)[NMeN][Trp(1-Me)]E(NH(1-deoxy-D-glucityl))[Trp(1-Me)]T[Aad](NH2)C-NH2; thioether N-12)	< 1
